In US20230085307A1, “PYRIDAZINONE COMPOUND AND HERBICIDE” (NISSAN CHEMICAL CORPORATION, priority 2019, published 2023):

Experiments:
[1] = test system: late watergrass; assay: Test Example 1: herbicidal activity, application before weed generation under submerged conditions (Table 16, symbol A); type: in vivo, late watergrass (Echinochloa oryzicola); conditions: amount of applied herbicide 320 g/ha
How it was run: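 Alluvial soil was flooded to 4 cm depth, weed seeds were sown mixed and 2.5-leaf rice seedlings were transplanted. On sowing day, the compound's emulsion, diluted in water to a set dose, was applied to the water surface. Plants grew at 25–30 °C and were scored 0–5 after three weeks.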

[2] = test system: late watergrass; assay: Test Example 2: herbicidal activity, application during weed generation under submerged conditions (Table 17, symbol A); type: in vivo, late watergrass (Echinochloa oryzicola); conditions: AAH 320 g/ha; application during weed generation, submerged conditions
How it was run: (§1)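 Mixed weed seedlings in alluvial soil under a 4 cm water layer, greenhouse-grown at 25–30° C. Compound given as a diluted emulsion into the floodwater at the 1–2 leaf stage; response graded after three weeks.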

[3] = test system: oval-leafed pondweed; assay: Test Example 2: herbicidal activity, application during weed generation under submerged conditions (Table 17, symbol C); type: in vivo, oval-leafed pondweed (Monochoria vaginalis); conditions: AAH 320 g/ha; application during weed generation, submerged conditions
How it was run: as §1

[4] = test system: barnyard grass; assay: Test Example 3: herbicidal effect by foliage application, Wagner pot (Table 18, symbol H); type: in vivo, barnyard grass (Echinochloa crus-galli); conditions: 320 g/ha
How it was run: (§2)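 Plants were sown in alluvial soil held under 0.1–0.5 cm standing water and grown 14 days in a greenhouse at 25–30 °C. An emulsifiable formulation, water-diluted to the set dose, was then sprayed onto the foliage, and effects were scored three weeks later using previously defined criteria.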

[5] = test system: Chinese sprangletop; assay: Test Example 3: herbicidal effect by foliage application, Wagner pot (Table 18, symbol D); type: in vivo, chinese sprangletop (Leptochloa chinensis); conditions: 320 g/ha
How it was run: as §2

[6] = test system: green foxtail; assay: Test Example 4: herbicidal effect by soil treatment (Table 19, symbol G); type: in vivo, green foxtail (Setaria viridis); conditions: amount of applied herbicide 320 g/ha
How it was run: (§3)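 Soil-surface application: an emulsion agent diluted with water to the predetermined dose is sprayed uniformly over seeds lying under roughly 1.5 cm of sterilized diluvial soil. Boxes stay in a greenhouse at 25° C. to 30° C. Three weeks later, each species is graded on previously defined criteria.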

[7] = test system: windgrass; assay: Test Example 4: herbicidal effect by soil treatment (Table 19, symbol L); type: in vivo, windgrass (Apera spica-venti); conditions: amount of applied herbicide 320 g/ha
How it was run: as §3

[8] = test system: velvetleaf; assay: Test Example 4: herbicidal effect by soil treatment (Table 19, symbol M); type: in vivo, velvetleaf (Abutilon theophrasti); conditions: amount of applied herbicide 320 g/ha
How it was run: as §3

[9] = test system: redroot pigweed; assay: Test Example 4: herbicidal effect by soil treatment (Table 19, symbol N); type: in vivo, redroot pigweed (Amaranthus retroflexus); conditions: amount of applied herbicide 320 g/ha
How it was run: as §3

[10] = test system: green foxtail; assay: Test Example 5: herbicidal effect by foliage application, plastic box (Table 20, symbol G); type: in vivo, green foxtail (Setaria viridis); conditions: 320 g/ha; for G: green foxtail, herbicidal effect grade: foliage application, three weeks after application; for herbicidal effect on G: green foxtail (evaluation grade 0-5): foliage application after 14-day growth, evaluated three weeks after application
How it was run: (§4)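 Sow seeds spot-wise in sterilized diluvial soil; cover with ~1.5 cm soil. Grow 14 days in greenhouse, 25° C. to 30° C. Spray foliage with emulsion diluted to predetermined amount. Rate effect after 3 weeks.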

[11] = test system: barnyard grass; assay: Test Example 5: herbicidal effect by foliage application, plastic box (Table 20, symbol H); type: in vivo, barnyard grass (Echinochloa crus-galli); conditions: 320 g/ha; for H: barnyard grass, herbicidal effect grade: foliage application, three weeks after application; for herbicidal effect on H: barnyard grass (evaluation grade 0-5): foliage application after 14-day growth, evaluated three weeks after application
How it was run: as §4

[12] = test system: wild oat; assay: Test Example 5: herbicidal effect by foliage application, plastic box (Table 20, symbol I); type: in vivo, wild oat (Avena fatua); conditions: 320 g/ha; for I: wild oat, herbicidal effect grade: foliage application, three weeks after application; for herbicidal effect on I: wild oat (evaluation grade 0-5): foliage application after 14-day growth, evaluated three weeks after application
How it was run: as §4

[13] = test system: windgrass; assay: Test Example 5: herbicidal effect by foliage application, plastic box (Table 20, symbol L); type: in vivo, windgrass (Apera spica-venti); conditions: 320 g/ha; for L: windgrass, herbicidal effect grade: foliage application, three weeks after application; for herbicidal effect on L: windgrass (evaluation grade 0-5): foliage application after 14-day growth, evaluated three weeks after application
How it was run: as §4

[14] = test system: velvetleaf; assay: Test Example 5: herbicidal effect by foliage application, plastic box (Table 20, symbol M); type: in vivo, velvetleaf (Abutilon theophrasti); conditions: 320 g/ha; for M: velvetleaf, herbicidal effect grade: foliage application, three weeks after application; for herbicidal effect on M: velvetleaf (evaluation grade 0-5): foliage application after 14-day growth, evaluated three weeks after application
How it was run: as §4

[15] = test system: redroot pigweed; assay: Test Example 5: herbicidal effect by foliage application, plastic box (Table 20, symbol N); type: in vivo, redroot pigweed (Amaranthus retroflexus); conditions: 320 g/ha; for N: redroot pigweed, herbicidal effect grade: foliage application, three weeks after application; for herbicidal effect on N: redroot pigweed (evaluation grade 0-5): foliage application after 14-day growth, evaluated three weeks after application
How it was run: as §4

[16] = test system: lambsquarters; assay: Test Example 5: herbicidal effect by foliage application, plastic box (Table 20, symbol O); type: in vivo, lambsquarters (Chenopodium album); conditions: 320 g/ha; for O: lambsquarters, herbicidal effect grade: foliage application, three weeks after application; for herbicidal effect on O: lambsquarters (evaluation grade 0-5): foliage application after 14-day growth, evaluated three weeks after application
How it was run: as §4

SMILES	Herbicidal effect, A: late watergrass [1]	herbicidal effect rating, A: late watergrass [2]	herbicidal effect rating, C: oval-leafed pondweed [3]	herbicidal effect on barnyard grass (H) [4]	herbicidal effect on Chinese sprangletop (D) [5]	G: green foxtail, herbicidal effect grade [10]	H: barnyard grass, herbicidal effect grade [11]	I: wild oat, herbicidal effect grade [12]	L: windgrass, herbicidal effect grade [13]	M: velvetleaf, herbicidal effect grade [14]	N: redroot pigweed, herbicidal effect grade [15]	O: lambsquarters, herbicidal effect grade [16]	Herbicidal effect by soil treatment, G: green foxtail [6]	Herbicidal effect by soil treatment, L: windgrass [7]	Herbicidal effect by soil treatment, M: velvetleaf [8]	Herbicidal effect by soil treatment, N: redroot pigweed [9]	herbicidal effect on G: green foxtail (evaluation grade 0-5) [10]	herbicidal effect on H: barnyard grass (evaluation grade 0-5) [11]	herbicidal effect on I: wild oat (evaluation grade 0-5) [12]	herbicidal effect on L: windgrass (evaluation grade 0-5) [13]	also measured
COc1ccccc1-c1sc2cc(OCCSC)ccc2c1-c1c(O)c(C)nn(C)c1=O [3-125]	3 (Herbicidal rate of 40% or more and less than 70%)	0 (Herbicidal rate of 5% or less (almost no effect))	3 (Herbicidal rate of 40% or more and less than 70%)	5 (Herbicidal rate of 90% or more (almost completely withered))	3 (Herbicidal rate of 40% or more and less than 70%)	5 (Herbicidal rate of 90% or more (almost completely withered))	3 (Herbicidal rate of 40% or more and less than 70%)	5 (Herbicidal rate of 90% or more (almost completely withered))	5 (Herbicidal rate of 90% or more (almost completely withered))	4 (Herbicidal rate of 70% or more and less than 90%)	5 (Herbicidal rate of 90% or more (almost completely withered))	4 (Herbicidal rate of 70% or more and less than 90%)	–	–	–	–	–	–	–	–	G: green foxtail, herbicidal effect grade [6]: 2 (Herbicidal rate of 20% or more and less than 40%); L: windgrass, herbicidal effect grade [7]: 3 (Herbicidal rate of 40% or more and less than 70%); M: velvetleaf, herbicidal effect grade [8]: 4 (Herbicidal rate of 70% or more and less than 90%); N: redroot pigweed, herbicidal effect grade [9]: 5 (Herbicidal rate of 90% or more (almost completely withered))
COc1ccccc1-c1sc2cc(OCC3CCCO3)ccc2c1-c1c(O)c(C)nn(C)c1=O (stereo not shown) [3-133]	3 (Herbicidal rate of 40% or more and less than 70%)	2 (Herbicidal rate of 20% or more and less than 40%)	1 (Herbicidal rate of 5% or more and less than 20%)	3 (Herbicidal rate of 40% or more and less than 70%)	3 (Herbicidal rate of 40% or more and less than 70%)	5 (Herbicidal rate of 90% or more (almost completely withered))	3 (Herbicidal rate of 40% or more and less than 70%)	4 (Herbicidal rate of 70% or more and less than 90%)	5 (Herbicidal rate of 90% or more (almost completely withered))	3 (Herbicidal rate of 40% or more and less than 70%)	5 (Herbicidal rate of 90% or more (almost completely withered))	5 (Herbicidal rate of 90% or more (almost completely withered))	5 (Herbicidal rate of 90% or more (almost completely withered))	5 (Herbicidal rate of 90% or more (almost completely withered))	1 (Herbicidal rate of 5% or more and less than 20%)	5 (Herbicidal rate of 90% or more (almost completely withered))	–	–	–	–	–
COc1ccc2c(-c3c(OC(=O)c4ccccc4OC)c(C)nn(C)c3=O)c(-c3ccccc3OC)sc2c1 [3-158]	5 (Herbicidal rate of 90% or more (almost completely withered))	4 (Herbicidal rate of 70% or more and less than 90%)	5 (Herbicidal rate of 90% or more (almost completely withered))	5 (Herbicidal rate of 90% or more (almost completely withered))	3 (Herbicidal rate of 40% or more and less than 70%)	–	–	–	–	–	–	–	0 (Herbicidal rate of 5% or less (almost no effect))	0 (Herbicidal rate of 5% or less (almost no effect))	0 (Herbicidal rate of 5% or less (almost no effect))	2 (Herbicidal rate of 20% or more and less than 40%)	5 (Herbicidal rate of 90% or more (almost completely withered))	5 (Herbicidal rate of 90% or more (almost completely withered))	3 (Herbicidal rate of 40% or more and less than 70%)	5 (Herbicidal rate of 90% or more (almost completely withered))	herbicidal effect on M: velvetleaf (evaluation grade 0-5) [14]: 5 (Herbicidal rate of 90% or more (almost completely withered)); herbicidal effect on N: redroot pigweed (evaluation grade 0-5) [15]: 5 (Herbicidal rate of 90% or more (almost completely withered)); herbicidal effect on O: lambsquarters (evaluation grade 0-5) [16]: 5 (Herbicidal rate of 90% or more (almost completely withered))
CCCOc1ccc(-c2sc3c(Cl)cccc3c2-c2c(OC(=O)CCC)c(C)nn(C)c2=O)cc1 [4-028]	3 (Herbicidal rate of 40% or more and less than 70%)	3 (Herbicidal rate of 40% or more and less than 70%)	0 (Herbicidal rate of 5% or less (almost no effect))	5 (Herbicidal rate of 90% or more (almost completely withered))	3 (Herbicidal rate of 40% or more and less than 70%)	–	–	–	–	–	–	–	0 (Herbicidal rate of 5% or less (almost no effect))	0 (Herbicidal rate of 5% or less (almost no effect))	1 (Herbicidal rate of 5% or more and less than 20%)	4 (Herbicidal rate of 70% or more and less than 90%)	3 (Herbicidal rate of 40% or more and less than 70%)	5 (Herbicidal rate of 90% or more (almost completely withered))	0 (Herbicidal rate of 5% or less (almost no effect))	0 (Herbicidal rate of 5% or less (almost no effect))	herbicidal effect on M: velvetleaf (evaluation grade 0-5) [14]: 5 (Herbicidal rate of 90% or more (almost completely withered)); herbicidal effect on N: redroot pigweed (evaluation grade 0-5) [15]: 5 (Herbicidal rate of 90% or more (almost completely withered)); herbicidal effect on O: lambsquarters (evaluation grade 0-5) [16]: 5 (Herbicidal rate of 90% or more (almost completely withered))
